The source of these data is patent publication US9629822B2, “Flavonoid based antiviral targets” (UNIVERSITY OF CENTRAL FLORIDA RESEARCH FOUNDATION, INC., priority 2012, dated 2017).

The structures appear in SMILES notation. Where two headings read alike, the source gives them in different places. Where only a bound is given, the exact number is not on record here.

Data set [1] deals with T1, US28 receptor (Human cytomegalovirus, UniProt P69332).
T1 construct: expressed in transfected cells; host or cells: HEK 293T cells, transiently transfected
T1 sequence (P69332 whole entry): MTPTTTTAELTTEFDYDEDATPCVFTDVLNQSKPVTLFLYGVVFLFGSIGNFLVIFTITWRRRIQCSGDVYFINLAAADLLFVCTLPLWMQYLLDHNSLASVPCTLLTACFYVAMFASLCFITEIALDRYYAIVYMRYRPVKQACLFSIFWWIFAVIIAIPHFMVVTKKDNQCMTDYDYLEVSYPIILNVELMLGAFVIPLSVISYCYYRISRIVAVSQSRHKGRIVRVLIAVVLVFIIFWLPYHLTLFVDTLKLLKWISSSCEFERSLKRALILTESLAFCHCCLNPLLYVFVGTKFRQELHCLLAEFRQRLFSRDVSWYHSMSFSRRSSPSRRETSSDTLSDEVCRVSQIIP
The conditions noted are these: same Elk1 reporter assay, from ref 13; cited from earlier work.

A short description of data set [2]: TZMbI assay for cell safety (cell viability and growth, CytoTox Glo). The settings on record: human, TZMbI cells, 10 μM, Experiment 1A; read-out: % decrease in viability compared to 0.1% DMSO vehicle based on viable cell luminescence. On the procedure:
Assays were performed below in accordance with the procedures set forth in The Journal of Immunology, 2006, 176, pp. 6900-905; AIDS Research and Human Retroviruses, 2004, 20:11, pp. 1157-1665.^32,33 TZMbI assays for cell safety were performed to identify potential anti-viral compounds. TZMbI assays for cell safety were performed to identify potential anti-viral compounds per the methods.

In data set [3] the test system is mock transfected 293T HEK cells. Put plainly: PathDetect Elk1 luminescence in mock transfected (empty pcDNA3 vector) 293T HEK cells, off-target effect. The settings on record: 10 μM vs 1% DMSO control, Equation 1; for activation at 10 µM: Homo sapiens, read-out: Effect(%) on mock cells with each drug at 10 μM. In kind it is cell-based, human. On the procedure: As a control, the empty pcDNA3 plasmid vector and the components of PathDetect system were also used for mock transfection of 293T HEK cells. Controls containing 1% DMSO were run in parallel. The relative luminescence results found with mock transfected 293T HEK cells treated with 10 μM drug and the untreated 1% DMSO control were compared via the following Equation 1. % Effect on mock cells=(100%×(mock cell luminescence/DMSO control luminescence))−100% Equation (1)
This equation was derived in order to assess the net effect each compound had on non-US28 containing HEK cells transfected via the same protocol. These control experiments were critical as they provided a method to address off target effects such as compound toxicity, which could give rise to false positives in the PathDetect assay.
Compounds, which had no off-target effects, gave nearly identical luminescence values in both the mock cells and the 1% DMSO control (i.e., a mock cell luminescence/DMSO control luminescence ratio of 1) and a net effect of 0% via Equation 1 (e.g., 9j: 0% in Table 1). In contrast, compounds that were stimulatory to the treated HEK cells gave higher mock cell luminescence than the DMSO control, a ratio >1, and a net positive value in Equation 1 for the % effect on mock cells (e.g., 8f: 290%). On the other hand, compounds that were intrinsically toxic gave lower luminescence in the treated mock cells than the DMSO control, a ratio below 1, and a net negative value for the % effect on mock cells (e.g., 8d: ˜42%).
The efficacy of each compound on the US28 receptor was investigated in luciferase based reporter gene assay PathDetect trans Elk1 (Agilent, Stratagene)^23 as described previously.^13 Briefly, the human embryonic kidney (HEK) 293T cells were transiently-transfected with 0.1 μg Elk1, 5 μg Luc, and 5 μg of US28 vector or empty pcDNA3 vector (mock cells). Five hours after transfection, the cells were washed with DMEM containing 1% FBS, harvested, seeded in a white half-area 96-well plate (20,000 cells/well) and incubated with the indicated concentrations of test compounds. The incubation buffer consisted of DMEM, 1% FBS, 2 mM L-glutamine, 1% penicillin-streptomycin and 1% DMSO. The cells were incubated at 37° C. in the humid atmosphere with 5% CO2 for an additional 20-24 hours. The luciferase substrate BrightGlo (Promega) was used according to the manufacturer's instruction. The luminescence intensity was acquired using microplate reader Victor3V (Perkin-Elmer). The basal luminescence of mock transfected cells was approximately 500 RLU and the basal luminescence of US28-transfected cells was 4-5-fold higher (2000-2500 RLU). As the inhibitors gave differential responses in terms of their ability to reduce US 28 mediated signaling, their relative EC50 values were determined by dosing the US-28 transfected HEK cells with increasing concentrations of each compound. In this case, the EC50 value is the concentration of the compound needed to provoke a response halfway between the compound's maximal response (change in luminescence) and the no-compound control in the same US-28 transfected cell line. A plot of relative luminescence versus log of the compound concentration provided a dose-response curve from which the % efficacy was derived via non-linear regression methods using the algorithms in PRISM 5.0 (GraphPad Software, San Diego, Calif.).

Data set [4] deals with HIV-1 BaL. Briefly: Anti-HIV assay (luciferase, HIV-1 BaL infection). The conditions noted are these: 10 μM, Experiment 1B, 2 ng/mL p24 HIV-1 BaL; for inhibition at 10 µM: Human immunodeficiency virus 1, BAL. The class given is cell-based. In outline:
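Cells infected with HIV-1 BaL at 2 ng/mL p24 (MOI approx 0.02) in compound presence. Infection read out by luciferase.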

Data set [5] has as its target T1, US28 receptor. Put plainly: PathDetect trans Elk1 luciferase reporter gene assay in US28-transfected 293T HEK cells. In kind it is cell-based, Human Cytomegalovirus (HCMV). The conditions noted are these: for EC50: 293T HEK cells transiently expressing US28, Elk1 reporter, NE = no effect when tested at 10 μM of compound; for Emax: read-out: Efficacy(%), maximum intrinsic activity from dose-response curve; for Emax / Efficacy(%): negative = inverse agonism; for Efficacy(%): maximum intrinsic activity from dose-response curve; for type of activity on the US28 receptor (agonist / inverse agonist / none), in words: Elk1 reporter, US28-transfected HEK cells. In outline: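 HEK293T cells transiently transfected with Elk1, Luc and US28 vector (empty pcDNA3 for mock) were dosed with compounds in DMEM/1% FBS with 1% DMSO for 20-24 h at 37° C. Bright-Glo luminescence decrease was read; EC50 is halfway between maximal response and no-compound control, by non-linear regression.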

Data set [6] concerns CHO cells. Briefly: CHO cell toxicity, MTS assay, 48 h. The conditions noted are these: Cricetulus griseus, CHO, 37° C., MTS reagent, read-out: CHO 48 h IC50 value. In kind it is cell-based, Chinese hamster. In outline:
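CHO cells plated at 10,000 cells/mL, incubated overnight, then exposed to drug (final DMSO <1%) for 48 h at 37 °C, 5% CO2, in triplicate. MTS added for a further 4 h; absorbance read at 490 nm. IC50 taken from relative A490 versus drug concentration.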

Broadly, the EC50 is the concentration that produces a half-maximal response. Turning to `N#CC(CCCN1CCC(O)(c2ccc(Cl)cc2)CC1)(c1ccccc1)c1ccccc1` [Compound 5a, VUF2274], in data set [1], the EC50 was 4.5 µM and the efficacy was about 22%.
By melting point is commonly meant the temperature of the solid-liquid transition. By inhibition is commonly meant the share of the control response that was lost under treatment. A high value points to strong suppression. As a reminder, the IC50 is the concentration needed to halve the response being measured. In the case of `COc1cc(OC)c(/C=C/C(=O)c2ccccc2O)cc1Br` [Compound 8e, (E)-3-(5-bromo-2,4-dimethoxyphenyl)-1-(2-hydroxyphenyl)prop-2-en-1-one], the melting point fell in the range of 153 to 157 °C. Also, the cytotoxicity at 10 μM in data set [2] worked out at 4.1%. The activation at 10 µM in data set [3] turned out to be 5%. Also, in data set [4], the “RLU (relative luciferase units)” value worked out at 671.4 RLU and testing at 10 µM gave an inhibition of 29%. The same compound yielded an EC50 in data set [5] (EC50 (μM)) of 4.9 µM. Moreover, the Emax in data set [5] was about 55%. In addition, in data set [6], the IC50 is 16.9 ± 1.3 µM.
In turn, `COc1ccc(I)cc1/C=C/C(=O)c1ccccc1O` [Compound 8g, (E)-1-(2-hydroxyphenyl)-3-(5-iodo-2-methoxyphenyl)prop-2-en-1-one] showed a melting point of 107 to 109 °C. Besides, the cytotoxicity at 10 μM in data set [2] came to 99.7%. For the same compound, in data set [3], the “Effect(%) on mock cells with each drug at 10 μM” value (shortened to “Effect(%) on mock cells”) came out at 100% and the activation at 10 µM was found to be 100%. In data set [4], the “RLU (relative luciferase units)” value was 3.3 RLU and the inhibition at 10 µM was determined as 99.6%. For the same compound, a half-maximal effect in data set [5] (EC50 (μM)) (EC50) was put at 5.5 µM. In data set [5], the “Efficacy(%)” value was about 94% and the Emax was about 94%. Moreover, the IC50 in data set [6] was 6.7 ± 0.7 µM.
On to `CCOc1ccc(Cl)cc1/C=C/C(=O)c1ccccc1O` [Compound 8i, (E)-3-(5-chloro-2-ethoxyphenyl)-1-(2-hydroxyphenyl)prop-2-en-1-one], for which the melting point is 61 to 65 °C. In data set [2], the cytotoxicity at 10 μM was found to be 87.1%. Besides, in data set [3], the “Effect(%) on mock cells” value turned out to be 33% and the activation at 10 µM is 33%. In data set [4], the “RLU (relative luciferase units)” value came to 130.4 RLU and the inhibition at 10 µM stood at 86.2%. In data set [5] (EC50 (μM)), it took 6.4 µM to reach a half-maximal effect (EC50). Also, in data set [5], the “Efficacy(%)” value was about 76% and the Emax is about 76%. For the same compound, the IC50 in data set [6] was found to be 6.8 ± 0.9 µM.
The compound `COc1ccc(C)cc1/C=C/C(=O)c1ccccc1O` [Compound 8j, (E)-1-(2-hydroxyphenyl)-3-(2-methoxy-5-methylphenyl)prop-2-en-1-one] showed a melting point of 69 to 72 °C. Besides, the cytotoxicity at 10 μM in data set [2] was 47%. Further, the activation at 10 µM in data set [3] is -4%. In data set [4], the “RLU (relative luciferase units)” value is 345.7 RLU and the inhibition at 10 µM stood at 63.1%. For the same compound, the “type of activity on the US28 receptor (agonist / inverse agonist / none), in words” value in data set [5] is on record as “agonist activity”. Moreover, the Emax at 10 µM in data set [5] (read-out: Efficacy(%), 10 μM single concentration) was determined as 52%. The IC50 in data set [6] came to 14.2 ± 2.7 µM.
Take `COc1cc(OC)c(-c2oc3ccccc3c(=O)c2O)cc1Br` [Compound 9e, 2-(5-Bromo-2,4-dimethoxyphenyl)-3-hydroxy-4H-chromen-4-one]: the melting point was in the range of 196 to 201 °C. In addition, the cytotoxicity at 10 μM in data set [2] was -11.9%. The activation at 10 µM in data set [3] is -17%. For the same compound, in data set [4], the “RLU (relative luciferase units)” value is listed as 693.9 RLU and testing at 10 µM gave an inhibition of 25.9%. For the same compound, in data set [5], the EC50 is over 10 µM. Besides, the IC50 in data set [6] turned out to be 18.3 ± 2.5 µM.
The compound `COc1ccc(Br)cc1-c1oc2cccc(OC)c2c(=O)c1O` [Compound 9f, 2-(5-Bromo-2-methoxyphenyl)-3-hydroxy-5-methoxy-4H-chromen-4-one] returned a melting point of 207 to 213 °C. Further, in data set [2], the cytotoxicity at 10 μM was -0.2%. Moreover, the activation at 10 µM in data set [3] was -1%. Also, in data set [4], the “RLU (relative luciferase units)” value was 528.5 RLU and the inhibition at 10 µM was determined as 43.6%. The compound also displayed an EC50 in data set [5] of over 10 µM. Further, the IC50 in data set [6] was 17.3 ± 1.9 µM.
The compound `COc1ccc(I)cc1-c1oc2ccccc2c(=O)c1O` [Compound 9g, 3-Hydroxy-2-(5-iodo-2-methoxyphenyl)-4H-chromen-4-one] gave a melting point of 153 to 159 °C. In addition, the cytotoxicity at 10 μM in data set [2] was 15.3%. Further, in data set [3], the activation at 10 µM was -23%. Also, in data set [4], the “RLU (relative luciferase units)” value was 358.6 RLU and the inhibition at 10 µM worked out at 61.7%. For the same compound, the EC50 in data set [5] was over 10 µM. Moreover, the IC50 in data set [6] was determined as 17.9 ± 1.6 µM.
Take `COc1ccc(C)cc1-c1oc2ccccc2c(=O)c1O` [Compound 9j, 3-hydroxy-2-(2-methoxy-5-methylphenyl)-4H-chromen-4-one]: the melting point was in the range of 158 to 164 °C. The cytotoxicity at 10 μM in data set [2] turned out to be 4.8%. Also, in data set [3], the “Effect(%) on mock cells” value was found to be 0% and the activation at 10 µM was found to be 0%. In addition, in data set [4], the “RLU (relative luciferase units)” value is listed as 814.0 RLU and testing at 10 µM gave an inhibition of 13%. Besides, the response in data set [5] (EC50 (μM)) was half-maximal at 1.78 µM (EC50). For the same compound, in data set [5], the “type of activity on the US28 receptor (agonist / inverse agonist / none), in words” value was “inhibited US28 receptor constitutive activity” and the Emax is -38%. Moreover, in data set [6], the IC50 is 54.6 ± 4.2 µM.
In turn, `COc1ccc(Cl)cc1C1CC(=O)c2ccccc2O1` (centres unmarked) [Compound 13h, 2-(5-Chloro-2-methoxyphenyl)chroman-4-one] registered a melting point of 51 to 60 °C. For the same compound, in data set [3], the activation at 10 µM is -14%. In data set [5], the EC50 is over 10 µM and the “type of activity on the US28 receptor (agonist / inverse agonist / none), in words” value is on record as “did not have any significant effect”. In data set [5] (EC50 (μM)), the EC50 is over 10 µM.
